Data: patent US20180289692A1, “TLR MODULATORS AND METHODS OF USE” (CELGENE CORPORATION, priority 2015, published 2018)
Oligonucleotides are written 5' to 3', each unit as a sugar letter and its base; * is a phosphorothioate linkage, no mark a phosphodiester; rarer units and linkages stand in square brackets, end groups in braces. Plain capitals give the bases only. d = 2'-deoxy (DNA)

Columns and labels:
[1] = test system: human PBMCs; assay: IL-1β secretion from NOD2 ligand L18-MDP stimulated human PBMCs; assay type: cell-based; conditions: L-18 MDP 100 ng/ml, FIG. 19
Method: PBMCs were isolated from 3 donors of buffy coat (Blood Center of NY) using density gradient centrifugation. The PBMCs were resuspended in RPMI-1640 media supplemented with 10% FBS, 2 mM L-glutamine and 100 units/ml Penicillin and 100 μg/ml Streptomycin. The cells were plated in 96-well flat bottom plates at 250,000 cells/well. […] After 1 hr, the cells were stimulated with and without L-18 MDP at 100 ng/ml (Invivogen, San Diego, Calif.) or 1 ng/ml LPS (Sigma, St. Louis, Mo.). The cells were then incubated for 24 hrs at 37° C., 5% CO2. All compounds or ODNs were resuspended in endotoxin-free water. After 24 hrs, the supernatant was collected and analyzed for cytokine production. The supernatants were analyzed in duplicate for cytokine production in a magnetic multi-plex bead format using the MagPix instrument (Millipore, Billerica, Mass.). IL-1β was tested using a bead-based human cytokine/chemokine kit (Millipore, Cat# HCYTOMAG-60K-09). The manufacturer's procedures were followed accordingly. Data analysis was performed using Milliplex Analyst Software (Millipore).

[2] = target: T1, NOD2 (Homo sapiens, UniProt Q9HC29); conditions: HEK-Blue NOD2 cells; cited from earlier work
T1 construct: host or cells: HEK-Blue NOD2 cells
T1 sequence (Q9HC29 whole entry, species assumed): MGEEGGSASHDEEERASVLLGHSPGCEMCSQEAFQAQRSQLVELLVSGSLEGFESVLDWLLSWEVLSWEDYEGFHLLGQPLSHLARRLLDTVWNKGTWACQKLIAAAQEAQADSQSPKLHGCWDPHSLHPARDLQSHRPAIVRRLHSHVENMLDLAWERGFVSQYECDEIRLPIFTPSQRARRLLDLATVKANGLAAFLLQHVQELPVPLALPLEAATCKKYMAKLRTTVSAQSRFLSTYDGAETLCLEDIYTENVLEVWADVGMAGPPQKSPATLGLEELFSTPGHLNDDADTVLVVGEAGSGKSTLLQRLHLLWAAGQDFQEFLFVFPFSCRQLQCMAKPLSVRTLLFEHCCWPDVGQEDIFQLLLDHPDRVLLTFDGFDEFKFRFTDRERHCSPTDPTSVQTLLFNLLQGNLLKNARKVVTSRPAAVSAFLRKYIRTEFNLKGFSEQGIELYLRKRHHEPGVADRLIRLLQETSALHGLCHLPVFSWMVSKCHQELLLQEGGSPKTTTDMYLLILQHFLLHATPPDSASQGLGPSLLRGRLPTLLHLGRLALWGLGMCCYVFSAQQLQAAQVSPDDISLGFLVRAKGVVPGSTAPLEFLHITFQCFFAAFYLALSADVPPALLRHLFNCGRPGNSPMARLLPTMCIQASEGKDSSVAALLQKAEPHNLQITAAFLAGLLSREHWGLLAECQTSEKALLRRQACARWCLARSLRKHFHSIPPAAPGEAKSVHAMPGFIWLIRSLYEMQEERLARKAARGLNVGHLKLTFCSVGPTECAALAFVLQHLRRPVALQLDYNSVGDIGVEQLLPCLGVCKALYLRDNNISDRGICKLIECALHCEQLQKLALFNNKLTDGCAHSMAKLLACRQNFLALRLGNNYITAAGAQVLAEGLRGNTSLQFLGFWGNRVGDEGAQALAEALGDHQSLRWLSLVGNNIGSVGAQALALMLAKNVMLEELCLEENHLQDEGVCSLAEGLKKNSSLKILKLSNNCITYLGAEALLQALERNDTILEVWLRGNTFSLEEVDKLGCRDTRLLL

[3] = test system: CD19+ B-cells in human PBMCs; assay: B-cell activation in human PBMCs, CD86 expression on CD19+ B-cells by FACS; assay type: cell-based; conditions: 24 h, FIG. 7
Method: PBMC were incubated on ice in the presence of Fc-Block (BD Pharmingen) for 20 minutes, washed, and incubated with antibodies specific for surface molecules or isotype-matched control mAbs. APC-Cy7 labeled anti-human CD19 mAb and PE-labeled anti-human CD86 mAb were purchased from BioLegend. The stained cells were then subjected to FACS (FACSCanto, BD Biosciences) using the FACSDiva software. FACS analysis was performed using FlowJo software. Single, viable cells in the CD19+ B-cells gates were used for analysis. The flow cytometric results are expressed as the percentage of CD86-expressing cells (FIG. 7A) as the mean fluorescence intensity (MFI) of CD86-expressing cells in each gate (FIG. 7B).

Row | Molecule | stimulation of IL-1β secretion from human PBMCs [1] | more efficient NF-κB activator than MDP [2] [fold] | B-cell activation (CD86 upregulation) [3]
1 | CCCCCCCCCCCCCCCCCC(=O)OCC1OC(O)C(NC(C)=O)C(OC(C)C(=O)NC(C)C(=O)NC(CCC(=O)O)C(N)=O)C1O [L-18 MDP] | about 51 fold | 10 | 
2 | ODN2137: 5′-TGCTGCTTTTGTGCTTTTGTGCTT-3′, fully PS, GC-containing (DNA dT*dG*dC*dT*dG*dC*dT*dT*dT*dT*dG*dT*dG*dC*dT*dT*dT*dT*dG*dT*dG*dC*dT*dT) |  |  | Stronger
